The values that follow come from ChEMBL document CHEMBL5053557, “Discovery of Novel Dual-Target Inhibitor of Bromodomain-Containing Protein 4/Casein Kinase 2 Inducing Apoptosis and Autophagy-Associated Cell Death for Triple-Negative Breast Cancer Therapy” (J Med Chem, 2021).

The structures appear in SMILES notation. The source made the active and inactive calls. The rule behind the calls is not given here.

In data set [1] the test system is MDA-MB-231. The data set can be described thus: Antitumor activity against human MDA-MB-231 cells xenografted in po dosed nude BALB/c mouse assessed as tumor growth inhibition at 1:1 JQ-1 : compound ratio administered once daily for 19 days and measured every 3 days. The data set is classed as functional, organism-based. Particulars: dose 50.0 mg/kg, time 19.0 day.

For the next data set, the system named is Mus musculus. The data set can be described thus: Toxicity in nude BALB/c mouse xenografted with human MDA-MB-231 cells assessed as change in body weight at 50 mg/kg, po containing 1:1 compound : JQ-1 ratio administered once daily for 19 days and measured every 3 days. The class given is organism-based. Particulars: in vivo, 456 h, time 19 day.
The test system of a further data set is MDA-MB-468. The data set is described as follows: Antiproliferative activity against human MDA-MB-468 cells incubated for 24 hrs by MTT assay. The settings on record: MDA-MB-468, 24 h. The class given is functional, cell-based.
Data set [2] concerns MDA-MB-231. The data set is described as follows: cells. The settings on record: Homo sapiens, MDA-MB-231, 24 h.

As for `O=C(O)c1ccc2c(c1)nc(Nc1cccc(Cl)c1)c1ccncc12` [SILMITASERTIB], in the data set with MDA-MB-231 [1], the result was Active. Also, the Activity entry with Mus musculus was “Toxic”.

Take `COc1cc(OC)c2c(=O)[nH]c(-c3cc(C)c(OCC(=O)Nc4ccc(N5CCN(C)CC5)c(Cl)c4)c(C)c3)nc2c1`: the figures for the IC50 with MDA-MB-468 and with MDA-MB-231 [2] were 4.58 µM and 3.49 µM, respectively.
